“And” between values parts separate entries of the source, which are not always exact repeats. Identical values can stand only once.
How the values were obtained:
[1] = test system: Escherichia coli (ATCC 25922); assay: Microbicidal activity against Escherichia coli (suspension test, surviving CFU); type: cell-based; conditions: inoculum 1630000 CFU
From the text: Each solution was used alone for the individual controls. Organism suspensions were used to achieve a final target concentration of 2-3×10^6 CFU per ml. For the binary system treatments, sodium hypochlorite solution and hydrogen peroxide solution, non-acidified or acidified, were sequentially added to the microorganisms. Acidified hydrogen peroxide solution was obtained by the addition of 1.0% v/v of 0.001 N hydrochloride solution. After each addition, the resulting mixture was allowed to remain in contact with the organisms for a set amount of time at room temperature (about 22° C.), as listed in the Tables 1 and 2. At the end of the treatment time, the mixtures were neutralized with 200 to 500 microliters of thiosulfate solution (2.4%) to quench the activity of sodium hypochlorite and then treated with 100 to 200 microliters of a 1% catalase solution, containing a minimum of 100 units/ul, to quench the hydrogen peroxide activity. If needed, an appropriate volume of sterile saline was added to bring the final volume of reaction mixture to 1.4 ml after neutralization. Serial dilution plate counts were performed from the contents of each vial in sterile saline and inoculated onto TSA for quantitative culture. Plates were then incubated at 37° C. and counts taken at 24 hours. […]

[2] = test system: Bacillus subtilis (ATCC 19659) spores; assay: Microbicidal activity against Bacillus subtilis spores (suspension test, surviving CFU); type: cell-based
From the text: Each solution was used alone for the individual controls. Organism suspensions were used to achieve a final target concentration of 2-3×10^6 CFU per ml. For the binary system treatments, sodium hypochlorite solution and hydrogen peroxide solution, non-acidified or acidified, were sequentially added to the microorganisms. Acidified hydrogen peroxide solution was obtained by the addition of 1.0% v/v of 0.001 N hydrochloride solution. After each addition, the resulting mixture was allowed to remain in contact with the organisms for a set amount of time at room temperature (about 22° C.), as listed in the Tables 1 and 2. At the end of the treatment time, the mixtures were neutralized with 200 to 500 microliters of thiosulfate solution (2.4%) to quench the activity of sodium hypochlorite and then treated with 100 to 200 microliters of a 1% catalase solution, containing a minimum of 100 units/ul, to quench the hydrogen peroxide activity. If needed, an appropriate volume of sterile saline was added to bring the final volume of reaction mixture to 1.4 ml after neutralization. Serial dilution plate counts were performed from the contents of each vial in sterile saline and inoculated onto TSA for quantitative culture. Plates were then incubated at 37° C. and counts taken at 24 hours.
Suspensions of Bacillus subtilis (ATCC 19659) containing 100% spores, as confirmed by microscopy, were obtained by washing the spun-down cells with 50% ethanol to eliminate the vegetative form. Starting inoculum of approximately 1-3×10^6 CFU was used as in Example 1.
[…] The binary system was neutralized 30 minutes after addition of hydrogen peroxide using 2.4% thiosulfate and 1% catalase as described in Example 1.

[3] = NaOCl 0.07 mM 60 min, inoculum 1120000 CFU
[4] = NaOCl 0.07 mM 60 min, inoculum 1865000 CFU
[5] = NaOCl 0.07 mM 120 min, inoculum 1865000 CFU
[6] = NaOCl 0.7 mM 60 min, inoculum 1500000 CFU
[7] = NaOCl 0.71 mM 60 min, inoculum 1120000 CFU
[8] = NaOCl 0.71 mM 60 min, inoculum 1865000 CFU
[9] = NaOCl 0.71 mM 120 min, inoculum 1865000 CFU
[10] = NaOCl 3.5 mM 60 min, inoculum 1500000 CFU
[11] = NaOCl 7.0 mM 60 min, inoculum 1500000 CFU
[12] = NaOCl 7.05 mM 60 min, inoculum 1120000 CFU
[13] = NaOCl 7.05 mM 60 min, inoculum 1865000 CFU
[14] = NaOCl 7.05 mM 120 min, inoculum 1865000 CFU
[15] = NaOCl 70.53 mM 60 min, inoculum 1865000 CFU
[16] = NaOCl 70.53 mM 120 min, inoculum 1865000 CFU
[17] = NaOCl 705.27 mM 60 min, inoculum 1865000 CFU
[18] = NaOCl 705.27 mM 120 min, inoculum 1865000 CFU

[Na+].[O-]Cl [NaOCl, sodium hypochlorite]
Log 10 (CFU + 1) Survivors ([1]; NaOCl 0.01 mM 15 min): 6.1 | Total Viability (CFU) ([1]; NaOCl 0.01 mM 15 min): 1218000 CFU | Log 10 (CFU + 1) Survivors ([1]; NaOCl 0.02 mM 15 min): 5.9 | Total Viability (CFU) ([1]; NaOCl 0.02 mM 15 min): 784000 CFU | Log 10 (CFU + 1) Survivors ([1]; NaOCl 0.03 mM 15 min): 3.0 | Total Viability (CFU) ([1]; NaOCl 0.03 mM 15 min): 994 CFU | Log 10 (CFU + 1) Survivors [2, 3]: 6.2 | Total Viability (CFU) [2, 3]: 1666000 CFU | Log 10 (CFU + 1) Survivors [2, 4]: 6.3 | Log Reduction [2, 4]: −0.1 | Total Viability (CFU) [2, 4]: 2142000 CFU | Log 10 (CFU + 1) Survivors [2, 5]: 6.3 | Log Reduction [2, 5]: 0.0 | Total Viability (CFU) [2, 5]: 1834000 CFU | Log 10 (CFU + 1) Survivors [2, 6]: 3.5 | Log Reduction [2, 6]: 2.7 and 2.66 | Total Viability (CFU) [2, 6]: 3304 CFU | Log 10 (CFU + 1) Survivors [2, 7]: 3.5 | Total Viability (CFU) [2, 7]: 2898 CFU | Log 10 (CFU + 1) Survivors [2, 8]: 4.2 | Log Reduction [2, 8]: 2.1 | Total Viability (CFU) [2, 8]: 14840 CFU | Log 10 (CFU + 1) Survivors [2, 9]: 3.2 | Log Reduction [2, 9]: 3.1 | Total Viability (CFU) [2, 9]: 1526 CFU | Log 10 (CFU + 1) Survivors [2, 10]: 2.7 | Log Reduction [2, 10]: 3.4 and 3.44 | Total Viability (CFU) [2, 10]: 546 CFU | Log 10 (CFU + 1) Survivors [2, 11]: 1.3 | Log Reduction [2, 11]: 4.9 and 4.87 | Total Viability (CFU) [2, 11]: 20 CFU | Log 10 (CFU + 1) Survivors [2, 12]: 1.3 | Total Viability (CFU) [2, 12]: 17 CFU | Log 10 (CFU + 1) Survivors [2, 13]: 1.6 | Log Reduction [2, 13]: 4.6 | Total Viability (CFU) [2, 13]: 43 CFU | Log 10 (CFU + 1) Survivors [2, 14]: 0.0 | Log Reduction [2, 14]: 6.3 | Total Viability (CFU) [2, 14]: 0 CFU | Log 10 (CFU + 1) Survivors [2, 15]: 0.0 | Log Reduction [2, 15]: 6.3 | Total Viability (CFU) [2, 15]: 0 CFU | Log 10 (CFU + 1) Survivors [2, 16]: 0.0 | Log Reduction [2, 16]: 6.3 | Total Viability (CFU) [2, 16]: 0 CFU | Log 10 (CFU + 1) Survivors [2, 17]: 0.0 | Log Reduction [2, 17]: 6.3 | Total Viability (CFU) [2, 17]: 0 CFU | Log 10 (CFU + 1) Survivors [2, 18]: 0.0 | Log Reduction [2, 18]: 6.3 | Total Viability (CFU) [2, 18]: 0 CFU | microbicidal activity (kill of inoculum) ([2]; sodium hypochlorite from 70 mM to 0.07 mM, 60 minutes of exposure, 6.3 log10 CFU inoculum): partial kill

— patent publication US20070264355A1, “BINARY COMPOSITIONS AND METHODS FOR STERILIZATION” (Binary, LLC, priority 2005, published 2007)
